# Data from patent US8901304B1, “Benzo[D]imidazole derivatives of piperidine and piperazine” (King Fahd University of Petroleum and Minerals, priority 2013, dated 2014).
row,Compound,melting point [°C]
1,"O=c1[nH]c2ccc(N3CCN(Cc4cccc(C5=CCCC5)c4)CC3)cc2[nH]1 [6e, 5-(4-(3-cyclopentenylbenzyl)piperazin-1-yl)-1H-benzo[d]imidazol-2(3H)-one]",244 to 245
2,"O=c1[nH]c2ccc(N3CCN(Cc4cncc(-c5ccc(F)cc5)c4)CC3)cc2[nH]1 [6d, 5-(4-((5-(4-fluorophenyl)pyridin-3-yl)methyl)piperazin-1-yl)-1H-benzo[d]imidazol-2(3H)-one]",246 to 247
3,"O=c1[nH]c2ccc(N3CCN(CC4(F)C=CC(c5ccccc5)=CC4)CC3)cc2[nH]1 (centres unmarked) [6b, 5-(4-((4-Fluorobiphenyl-4-yl)methyl)piperazin-1-yl)-1H-benzo[d]imidazol-2(3H)-one]",> 260
4,"O=c1[nH]c2ccc(N3CCN(Cc4ccc(-c5ccccc5)cc4)CC3)cc2[nH]1 [6a, 5-(4-(biphenyl-4-ylmethyl)piperazin-1-yl)-1H-benzo[d]imidazol-2(3H)-one]",> 260
5,"O=c1[nH]c2ccc(N3CCN(Cc4cncc(C5=CCCC5)c4)CC3)cc2[nH]1 [6f, 5-(4-((5-cyclopentenylpyridin-3-yl)methyl)piperazin-1-yl)-1H-benzo[d]imidazol-2(3H)-one]",255 to 256
6,"O=c1[nH]c2ccc(C3CCN(Cc4ccc(-c5ccccc5)cc4)CC3)cc2[nH]1 [5a, 5-(1-(biphenyl-4-ylmethyl)piperidin-4-yl)-1H-benzo[d]imidazol-2(3H)-one]",> 260
7,"O=c1[nH]c2ccc(C3CCN(Cc4cncc(-c5ccccc5)c4)CC3)cc2[nH]1 [5c, 5-(1-((5-phenylpyridin-3-yl)methyl)piperidin-4-yl)-1H-benzo[d]imidazol-2(3H)-one]",236 to 237
8,"O=c1[nH]c2ccc(C3CCN(Cc4cncc(C5=CCCC5)c4)CC3)cc2[nH]1 [5f, 5-(1-((5-cyclopentenylpyridin-3-yl)methyl)piperidin-4-yl)-1H-benzo[d]imidazol-2(3H)-one]",249 to 250
